Experimental data published in ChEMBL document CHEMBL1153165, “Solvent-free, microwave assisted synthesis of polyhalo heterocyclic ketene aminals as novel anti-cancer agents” (Bioorg Med Chem Lett, 2010).
≈ marks a conversion by molar mass, not a printed value.

Assays:
Format in all cases: functional, cell-based
[1] = system: K562; experiment: Antitumor activity against human K562 cells by MTT assay
[2] = system: HepG2; experiment: Antitumor activity against human HepG2 cells by MTT assay
[3] = system: HL-60; experiment: Antitumor activity against human HL60 cells by MTT assay
[4] = system: SK-OV-3; experiment: Antitumor activity against human SKOV3 cells by MTT assay
[5] = system: A-431; experiment: Antitumor activity against human A431 cells by MTT assay

Row | SMILES | IC50 [1] | IC50 [2] | IC50 [3] | IC50 [4] | IC50 [5]
1 | N#Cc1c(F)c(Cl)c(C(C(=O)c2ccc(F)cc2)=C2NCCCN2)c(C#N)c1F | 1.8 µg/mL (≈ 4.32 µM) | 45.1 µg/mL (≈ 108 µM) | 0.6 µg/mL (≈ 1.44 µM) | 8.2 µg/mL (≈ 19.7 µM) | 0.9 µg/mL (≈ 2.16 µM)
2 | N#Cc1c(Cl)c(Cl)c(C(C(=O)c2ccc(F)cc2)=C2NCCCN2)c(C#N)c1Cl | 0.2 µg/mL (≈ 0.445 µM) | 31.8 µg/mL (≈ 70.7 µM) | 2.1 µg/mL (≈ 4.67 µM) | 10.4 µg/mL (≈ 23.1 µM) | 1.1 µg/mL (≈ 2.45 µM)
3 | N#Cc1c(Cl)c(Cl)c(C(C(=O)c2ccc(Cl)cc2)=C2NCCN2)c(C#N)c1Cl | 0.8 µg/mL (≈ 1.77 µM) | 5.2 µg/mL (≈ 11.5 µM) | 0.5 µg/mL (≈ 1.11 µM) | 1.6 µg/mL (≈ 3.54 µM) | 1.5 µg/mL (≈ 3.32 µM)
4 | Cc1ccc(C(=O)C(=C2NCCN2)c2c(Cl)c(Cl)c(C#N)c(Cl)c2C#N)cc1 | 1.4 µg/mL (≈ 3.24 µM) | 15.8 µg/mL (≈ 36.6 µM) | 15.7 µg/mL (≈ 36.4 µM) | 9.2 µg/mL (≈ 21.3 µM) | 4.1 µg/mL (≈ 9.5 µM)
5 | COc1ccc(C(=O)C(=C2NCCN2)c2c(Cl)c(F)c(C#N)c(F)c2C#N)cc1 | 22.6 µg/mL (≈ 54.5 µM) | 9.8 µg/mL (≈ 23.6 µM) | 0.05 µg/mL (≈ 0.121 µM) | 1.1 µg/mL (≈ 2.65 µM) | 0.7 µg/mL (≈ 1.69 µM)
6 | Cc1ccc(C(=O)C(=C2NCCN2)c2c(F)c(F)c(C#N)c(F)c2C#N)cc1 | 0.9 µg/mL (≈ 2.35 µM) | 29.2 µg/mL (≈ 76.4 µM) | 0.04 µg/mL (≈ 0.105 µM) | 2 µg/mL (≈ 5.23 µM) | 0.5 µg/mL (≈ 1.31 µM)
7 | N#Cc1c(F)c(Cl)c(C(C(=O)c2ccccc2)=C2NCCCCN2)c(C#N)c1F | 2.1 µg/mL (≈ 5.09 µM) | 27.8 µg/mL (≈ 67.3 µM) | 0.1 µg/mL (≈ 0.242 µM) | 4.6 µg/mL (≈ 11.1 µM) | 1.5 µg/mL (≈ 3.63 µM)
8 | N#Cc1c(Cl)c(Cl)c(C(C(=O)c2ccccc2)=C2NCCCCN2)c(C#N)c1Cl | 0.1 µg/mL (≈ 0.224 µM) | 14.5 µg/mL (≈ 32.5 µM) | 0.2 µg/mL (≈ 0.449 µM) | 2.7 µg/mL (≈ 6.06 µM) | 1 µg/mL (≈ 2.24 µM)
9 | CC(=O)C(=C1NCCN1)c1c(Cl)c(F)c(C#N)c(F)c1C#N | 4.4 µg/mL (≈ 13.6 µM) | 1.3 µg/mL (≈ 4.03 µM) | 0.3 µg/mL (≈ 0.93 µM) | 1.5 µg/mL (≈ 4.65 µM) | 2.9 µg/mL (≈ 8.99 µM)
10 | N#Cc1c(F)c(C#N)c(C(C(=O)c2ccccc2)=C2NCCN2)c(F)c1Nc1ccccc1 | 5.6 µg/mL (≈ 12.7 µM) | 102 µg/mL (≈ 231 µM) | 0.3 µg/mL (≈ 0.68 µM) | 0.2 µg/mL (≈ 0.453 µM) | 5.3 µg/mL (≈ 12 µM)
11 | N#Cc1c(Cl)c(Cl)c(C(C(=O)c2ccccc2)=C2NCCN2)c(C#N)c1Cl | 8.5 µg/mL (≈ 20.4 µM) | 10.2 µg/mL (≈ 24.4 µM) | 9.1 µg/mL (≈ 21.8 µM) | 9.9 µg/mL (≈ 23.7 µM) | 2.3 µg/mL (≈ 5.51 µM)
12 | N#Cc1c(F)c(Cl)c(C(C(=O)c2ccccc2)=C2NCCN2)c(C#N)c1F | 20.8 µg/mL (≈ 54.1 µM) | 32.6 µg/mL (≈ 84.7 µM) | 4.7 µg/mL (≈ 12.2 µM) | 32.6 µg/mL (≈ 84.7 µM) | 87.1 µg/mL (≈ 226 µM)
13 | Cc1ccc(C(=O)C(=C2NCCN2)c2c(Cl)c(F)c(C#N)c(F)c2C#N)cc1 | 41.9 µg/mL (≈ 105 µM) | 49.1 µg/mL (≈ 123 µM) | 0.03 µg/mL (≈ 0.0752 µM) | 6.7 µg/mL (≈ 16.8 µM) | 1.7 µg/mL (≈ 4.26 µM)
14 | N#Cc1c(F)c(F)c(C(C(=O)c2ccccc2)=C2NCCCCN2)c(C#N)c1F | 0.3 µg/mL (≈ 0.757 µM) | 24.9 µg/mL (≈ 62.8 µM) | 0.1 µg/mL (≈ 0.252 µM) | 4.2 µg/mL (≈ 10.6 µM) | 1.9 µg/mL (≈ 4.79 µM)
15 | N#Cc1c(F)c(Cl)c(C(C(=O)c2ccc(Cl)cc2)=C2NCCN2)c(C#N)c1F | 1.6 µg/mL (≈ 3.82 µM) | 47.5 µg/mL (≈ 113 µM) | 0.3 µg/mL (≈ 0.716 µM) | 8.6 µg/mL (≈ 20.5 µM) | 1.8 µg/mL (≈ 4.29 µM)
16 | CCOC(=O)C(=C1NCCN1)c1c(F)c(F)c(C#N)c(F)c1C#N | 0.03 µg/mL (≈ 0.0892 µM) | 0.7 µg/mL (≈ 2.08 µM) | 0.02 µg/mL (≈ 0.0595 µM) | 3.3 µg/mL (≈ 9.81 µM) | 3.7 µg/mL (≈ 11 µM)
17 | N#Cc1c(F)c(F)c(C(C(=O)c2ccc(F)cc2)=C2NCCCN2)c(C#N)c1F | 2.5 µg/mL (≈ 6.24 µM) | 11 µg/mL (≈ 27.5 µM) | 0.04 µg/mL (≈ 0.0999 µM) | 0.5 µg/mL (≈ 1.25 µM) | 1.8 µg/mL (≈ 4.5 µM)
18 | N#Cc1c(F)c(F)c(C(C(=O)c2ccccc2)=C2NCCN2)c(C#N)c1F | 19.6 µg/mL (≈ 53.2 µM) | 9.1 µg/mL (≈ 24.7 µM) | 0.2 µg/mL (≈ 0.543 µM) | 30.3 µg/mL (≈ 82.3 µM) | 5.5 µg/mL (≈ 14.9 µM)
19 | CC(=O)C(=C1NCCN1)c1c(Cl)c(Cl)c(C#N)c(Cl)c1C#N | 0.1 µg/mL (≈ 0.281 µM) | 5.8 µg/mL (≈ 16.3 µM) | 3.7 µg/mL (≈ 10.4 µM) | 14.1 µg/mL (≈ 39.6 µM) | 1.5 µg/mL (≈ 4.22 µM)
20 | COc1ccc(C(=O)C(=C2NCCN2)c2c(Cl)c(Cl)c(C#N)c(Cl)c2C#N)cc1 | 0.08 µg/mL (≈ 0.179 µM) | 10.8 µg/mL (≈ 24.1 µM) | 2.3 µg/mL (≈ 5.14 µM) | 6.4 µg/mL (≈ 14.3 µM) | 0.5 µg/mL (≈ 1.12 µM)
21 | CCOC(=O)C(=C1NCCN1)c1c(Cl)c(Cl)c(C#N)c(Cl)c1C#N | 0.5 µg/mL (≈ 1.3 µM) | 0.2 µg/mL (≈ 0.519 µM) | 0.4 µg/mL (≈ 1.04 µM) | 4.1 µg/mL (≈ 10.6 µM) | 0.2 µg/mL (≈ 0.519 µM)
22 | N#Cc1c(F)c(F)c(C(C(=O)c2ccc(Cl)cc2)=C2NCCN2)c(C#N)c1F | 1.8 µg/mL (≈ 4.47 µM) | 12.5 µg/mL (≈ 31 µM) | 0.3 µg/mL (≈ 0.745 µM) | 3.8 µg/mL (≈ 9.43 µM) | 3.2 µg/mL (≈ 7.95 µM)
23 | CCOC(=O)C(=C1NCCN1)c1c(Cl)c(F)c(C#N)c(F)c1C#N | 0.09 µg/mL (≈ 0.255 µM) | 2.5 µg/mL (≈ 7.09 µM) | 0.02 µg/mL (≈ 0.0567 µM) | 4.9 µg/mL (≈ 13.9 µM) | 3.9 µg/mL (≈ 11.1 µM)
